Measurements as given in patent US12366579B2, “Sulfur-heterocycle exchange chemistry and uses thereof” (University of Virginia Patent Foundation, priority 2019, dated 2025).

How the values were obtained:
[1] = system: HEK293T soluble proteomes; test: LC-MS chemical proteomics of probe-modified sites in cell proteomes; assay type: binding, human; settings: for unique-modified tyrosine sites among 1,2,4-SuTEx probes: FIG. 4D; for tyrosine specificity, Y/K ratio of modified sites: LC-MS chemical proteomics
Description: Proteomes were diluted to 2.3 mg/mL in PBS and sample aliquots (432 μL) were treated with sulfonyl-triazole or -fluoride probes at the indicated concentrations (5 μL, 100× stock in DMSO), mixed gently and incubated for 1 h at room temperature. Probe-modified proteomes were subjected to CuAAC conjugation to desthiobiotin-PEG3-azide (10 μL of 10 mM stock in DMSO; final concentration of 200 μM) using TCEP (10 μL of fresh 50 mM stock in water; 1 mM final concentration), TBTA ligand (33 μL of a 1.7 mM 4:1 t-butanol/DMSO stock, 100 μM final concentration), and CuSO4 (10 μL of 50 mM stock, 1 mM final concentration). Samples were mixed by vortexing and then incubated for 1 h at room temperature. Excess reagents were removed by chloroform-methanol extraction as previously described^51. Protein pellets were re-suspended in 500 μL of 6M urea/25 mM ammonium bicarbonate followed by DTT reduction and IAA alkylation as previously described^5. Excess reagents were removed by chloroform/methanol extraction as described above, and the protein pellet was re-suspended in 500 μL of 25 mM ammonium bicarbonate and then digested to peptides using trypsin/Lys-C (7.5 μg in 15 μL of ammonium bicarbonate, sequencing grade from Promega, Madison, Wisconsin, United States of America) was added to the mixture and incubated for 3 hrs at 37° C. Probe-modified peptides were enriched by avidin affinity chromatography, eluted, and prepared for LC-MS analysis as previously described^51.
A top 10 data-dependent acquisition MS method was used.
Sulfonyl-probe modifications of tyrosine, lysine, and other amino acids were included as a variable (common) modification of +635.27374 Da. […] A Byonic score of 300 was applied for a more inclusive initial evaluation of the search results and thereby consider more possible probe-modified sites. MS1 and MS2 spectra corresponding to the highest-scoring tyrosine- and lysine (internal or non-C terminal)-modified sequences (˜50-100 peptides) were manually verified. […] Distinct peptides containing probe-modified amino acid residues (termed sites) were determined by identifying all unique razor protein and site combinations across all of the proteomes tested.
To compare amino acid residues modified by sulfonyl probes, protein and peptide identifications were accomplished as described above with variable (common) modification of +635.27374 Da on the following amino acid residues: cysteine, aspartic acid, glutamic acid, histidine, lysine, methionine, asparagine, glutamine, arginine, serine, threonine, tryptophan, and tyrosine. For these amino acid comparisons, carbamidomethylation (+57.021464 Da) of cysteines was searched as a variable/common modification to allow for the potential of probe modification on cysteines. Comparisons of probe-modified sites across all probes and cell lines tested were performed using the R package ggplot2 (online at tidyverse.org). Venn diagrams for comparisons were generated using the VennDiagram R package^52.
Proteomes were digested with trypsin protease and desthiobiotin-modified peptides enriched by avidin affinity chromatography, released, and analyzed by high-resolution liquid chromatography-mass spectrometry (LC-MS). Probe-modified peptide-spectrum matches (PSMs) that met a quality control confidence criteria of ≥300 Byonic score^31 and ≤5 ppm mass accuracy were selected for further manual evaluation.

[2] = HPLC assay for solution reactivity of sulfonyl triazole fragments with p-cresol; assay type: physicochemical; settings: for solution reactivity with p-cresol: HPLC assay, TMG base; for time to completion of reaction with p-cresol: TMG 1.1 equivalents, on ice
Description: HPLC Assay for Profiling Solution Reactivity and Stability of Sulfonyl Triazole Fragments
The following reagents were prepared and stored on ice prior to use. 0.1 M solution of caffeine in acetonitrile, 1.0 M solution of n-butylamine, p-cresol, tetramethylguanidine […], 1 M HOAc in ACN and 10 mM solution of SuTEx fragment in DMF-ACN mixture (10:90, v/v). 500 μL of fragment solution was transferred to a dram vial on ice. To the mixture, 5.5 μL of TMG and 5.5 μL of p-cresol or n-butylamine was added and solutions were stirred on ice for 6 h. To monitor reactivity, 50 μL aliquots were removed at indicated time points and quenched with 10 μL of a 1:1 mixture of caffeine and HOAc. Samples were injected (1 μL) and analyzed by reverse-phase HPLC on a Shimadzu 1100 Series spectrometer (Shimadzu, Kyoto, Japan) with UV detection at 254 nm. Reaction progress was evaluated by monitoring consumption of starting material (SuTEx fragment) normalized to caffeine standard. Chromatographic separation was performed using a Phenomenex Kinetex C18 column (2.6 μm, 50×4.6 mm) (Phenomenex, Torrance, California, United States of America). Mobile phases A and B were composed of H2O+0.1% HOAc and ACN+0.1% HOAc, respectively. Samples were analyzed using the following analytical conditions: using a flow rate of 0.8 ml min^−1, the gradient was as follows: 0-0.5 min, 15% B; 0.5-6.5 min 85% B; 6.5-7 min 100% B: 7-8.5 min 100% B; 8.5-9 min 15% B; 9-9.8 min 15% B.

human DPP3 (hDPP3) = molecular target: T1, human DPP3 (hDPP3) (Homo sapiens, UniProt Q9NY33); test: Gel-based competitive chemical proteomic screen with HHS-482, recombinant hDPP3-HEK293T soluble proteomes; assay type: binding; settings: 50 μM fragment, 37° C., 30 min
T1 construct: FLAG (C); host or cells: HEK293T, transient transfection; soluble proteome used unpurified
T1 sequence (Q9NY33 1-737): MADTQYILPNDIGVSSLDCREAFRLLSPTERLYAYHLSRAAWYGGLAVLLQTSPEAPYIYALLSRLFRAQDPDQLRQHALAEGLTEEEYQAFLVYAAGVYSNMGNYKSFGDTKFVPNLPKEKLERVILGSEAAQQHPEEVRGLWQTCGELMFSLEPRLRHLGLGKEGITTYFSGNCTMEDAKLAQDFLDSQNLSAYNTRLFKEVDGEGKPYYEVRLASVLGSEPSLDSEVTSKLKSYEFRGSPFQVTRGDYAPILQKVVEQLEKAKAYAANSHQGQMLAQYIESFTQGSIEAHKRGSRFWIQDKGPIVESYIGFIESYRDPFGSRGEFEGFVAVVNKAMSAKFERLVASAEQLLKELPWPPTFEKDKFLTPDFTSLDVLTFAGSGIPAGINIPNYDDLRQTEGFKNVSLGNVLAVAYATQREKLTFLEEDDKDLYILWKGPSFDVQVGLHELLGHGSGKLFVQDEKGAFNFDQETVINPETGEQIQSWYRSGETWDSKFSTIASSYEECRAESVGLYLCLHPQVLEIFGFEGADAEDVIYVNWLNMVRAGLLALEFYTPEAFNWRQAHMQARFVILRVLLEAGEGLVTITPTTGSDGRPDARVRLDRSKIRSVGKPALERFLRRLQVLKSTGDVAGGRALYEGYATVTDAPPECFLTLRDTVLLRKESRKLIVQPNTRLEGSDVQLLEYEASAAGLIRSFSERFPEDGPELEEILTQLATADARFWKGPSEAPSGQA
Description: Gel-Based Chemical Proteomic Assay
Cell pellets were lysed in PBS and fractionated (100,000×g, 45 min, 4° C.) to generate soluble and membrane fractions. Protein concentrations were determined using Bio-Rad DC protein assay (Bio-Rad Laboratories, Inc., Hercules, California, United States of America), and adjusted to 1 mgml^−1 in PBS. Proteome samples (49 μl aliquots) were treated with DMSO vehicle or indicated concentration of SuTEx fragment (1 μL, 50× stock in DMSO) for 30 min at 37° C. Samples were then treated with HHS-482 probe (1 μL, 2.5 mM stock in DMSO) for 30 min at 37° C. Probe labeled samples were conjugated to rhodamine-azide (1 μL, 1.25 mM stock; final concentration of 25 μM) by copper-catalyzed azide-alkyne cycloadditions (CuAAC) for 1 h at room temperature followed by SDS-PAGE and in-gel fluorescence scanning as previously described^57.

DM93 soluble proteomes = test: Proteome-wide competitive chemical proteomics of SuTEx fragments vs HHS-482; assay type: binding, human; settings: fragment 50 μM, 30 min, 37° C.
Description: Heavy and light proteomes (432 μl of each) were diluted to 2.3 mg ml^−1 in PBS and sample aliquots (432 μl) were treated with SuTEx fragment at the indicated concentrations (5 μl, 100× stock in DMSO), mixed gently and incubated for 30 min at 37° C. Samples were then treated with HHS-482 (5 μL, 5 mM stock in DMSO) for 30 min at 37° C. Probe-modified proteomes were conjugated to desthiobiotin-PEG3-azide followed by enrichment of probe-modified peptides for nano-electrospray ionization-LC-MS/MS analyses as previously described^57.
The chemical proteomic method for functional tyrosine profiling^72 was tailored to investigate AG/LG effects on SuTEx fragment reactivity in complex proteomes. In brief, isotopically light and heavy soluble proteomes from DM93 melanoma cells cultured by stable isotopic labeling by amino acids in cell culture (SILAC^80) media were used for quantitative liquid chromatography-mass spectrometry (LC-MS) studies. Light and heavy DM93 proteomes were treated with dimethyl sulfoxide (DMSO) vehicle or SuTEx fragment (50 μM, 30 min, 37° C.), respectively, followed by labeling with the tyrosine-reactive probe HHS-482 described hereinabove (50 μM, 30 min, 37° C.) and copper-catalyzed azide-alkyne cycloaddition (CuAAC) conjugation of a desthiobiotin-azide enrichment tag. Proteomes were digested with trypsin protease, HHS-482-modified peptides enriched by avidin chromatography and analyzed by high-resolution LC-MS/MS and bioinformatics as described hereinabove.
To evaluate substituent effects on proteome activity, reactivity profiles of each respective SuTEx fragment were compared across >1500 total distinct HHS-482-modified tyrosine sites from >650 detected proteins. Fragments were screened across independent biological replicates (n=2-3) and high-quality tyrosine site annotations were identified by detection in at least a single biological replicate from each fragment dataset, probe-specific enrichment (HHS-482 probe/DMSO SILAC ratio (SR)>5), and quality control confidence criteria of ≥300 Byonic score^31, […] protein false discovery rate (FDR), and ≤5 ppm mass accuracy in order to minimize the potential for false positives^72. SILAC ratios (SR) from competitive studies (Light-DMSO/Heavy-fragment) were used to identify fragment-competed tyrosine residues as sites showing >75% reduction in enrichment by HHS-482 compared with DMSO vehicle control (i.e. liganded tyrosines, SR>4). In total, 305 liganded tyrosines on 213 distinct proteins were identified, corresponding to ˜30% and ˜44% of total quantified tyrosines and proteins, respectively. […]

In the case of `C#CCNC(=O)c1ccc(S(=O)(=O)n2cnc(-c3ccccc3)n2)cc1` [HHS-481, 4-((3-Phenyl-1H-1,2,4-triazol-1-yl)sulfonyl)-N-(prop-2-yn-1-yl)benzamide], the “total number of probe-modified sites (Y and K combined)” value ([1]; FIG. 4A) is reported as ~4,000 sites, the “unique-modified tyrosine sites among 1,2,4-SuTEx probes” value [1] is reported as 445 sites and the “tyrosine specificity, Y/K ratio of modified sites” value ([1]; FIG. 4A) is reported as 3.5.

In the case of `C#CCNC(=O)c1ccc(S(=O)(=O)n2cnc(-c3ccc(OC)cc3)n2)cc1` [HHS-482, 4-((3-(4-Methoxyphenyl)-1H-1,2,4-triazol-1-yl)sulfonyl)-N-(prop-2-yn-1-yl)benzamide], the “total number of probe-modified sites (Y and K combined)” value ([1]; FIG. 4A) is reported as ~3,000 sites, the “unique-modified tyrosine sites among 1,2,4-SuTEx probes” value [1] is reported as 112 sites and the “tyrosine specificity, Y/K ratio of modified sites” value ([1]; FIG. 4A) is reported as about 5. For the same compound, the “fraction of probe-modified residues/peptides assigned to tyrosines” value ([1]; high confidence sites) was about 75%.

With `C#CCNC(=O)c1ccc(S(=O)(=O)n2cnc(-c3ccc(F)cc3)n2)cc1` [HHS-483, 4-((3-(4-Fluorophenyl)-1H-1,2,4-triazol-1-yl)sulfonyl)-N-(prop-2-yn-1-yl)benzamide] the “proteome reactivity and tyrosine specificity compared with HHS-481” value ([1]; FIG. 4A) was “comparable reactivity and slightly lowered tyrosine specificity” and the “unique-modified tyrosine sites among 1,2,4-SuTEx probes” value [1] was 433 sites.

For `COc1ccc(-c2ncn(S(=O)(=O)c3ccc(F)cc3)n2)cc1` [JWB135, 1-((4-Fluorophenyl)sulfonyl)-3-(4-methoxyphenyl)-1H-1,2,4-triazole], the “solution reactivity with p-cresol” value [2] was “attenuated reactivity”.

With `COc1ccc(-c2ncn(S(=O)(=O)c3ccc(OC)cc3)n2)cc1` [JWB136, 3-(4-Methoxyphenyl)-1-((4-methoxyphenyl)sulfonyl)-1H-1,2,4-triazole] the “solution reactivity with p-cresol” value [2] was “incomplete reaction”.

In the case of `COc1ccc(-c2ncn(S(=O)(=O)c3ccc(C#N)cc3)n2)cc1` [JWB137, 4-((3-(4-Methoxyphenyl)-1H-1,2,4-triazol-1-yl)sulfonyl)benzonitrile], the “time to completion of reaction with p-cresol” value [2] is reported as about 5 min.

In the case of `COc1ccc(-c2ncn(S(=O)(=O)c3cccnc3)n2)cc1` [JWB141, 3-((3-(4-Methoxyphenyl)-1H-1,2,4-triazol-1-yl)sulfonyl)pyridine], the “time to completion of reaction with p-cresol” value [2] is reported as about 30 min.

With `O=S(=O)(c1ccc(F)cc1)n1cnc(-c2ccc(C(F)(F)F)cc2)n1` [JWB150, 1-((4-Fluorophenyl)sulfonyl)-3-(4-(trifluoromethyl)phenyl)-1H-1,2,4-triazole] the “competition against recombinant DPP3” value (human DPP3 (hDPP3); also substantial proteome cross-reactivity) was “potent competition”, the “solution reactivity with p-cresol” value [2] was “comparable reaction” and the “liganded tyrosine frequency (SR>4)” value (DM93 soluble proteomes) was over 25%.

In the case of `O=S(=O)(c1ccc(-c2ccccc2)cc1)n1cnc(-c2ccncc2)n1` [JWB202, 4-(1-([1,1′-Biphenyl]-4-ylsulfonyl)-1H-1,2,4-triazol-3-yl)pyridine], the “blockade of DPP3 probe (HHS-482) labeling” value (human DPP3 (hDPP3)) is reported as about 50%.
